Experimental data published in patent publication US4695570A, “Antiviral compound use” (Burroughs Wellcome Co., priority 1985, dated 1987).
Values after ≈ are worked out from the molar mass of the structure shown.

Key:
[1] = test system: xanthine oxidase/dehydrogenase or aldehyde oxidase; assay: Ex vivo (in vitro) enzymatic oxidation to acyclovir; format: biochemical
Text: (§1) It is thus possible to synthesize acyclovir in the body (i.e. in vivo) by administering 6-deoxyacyclovir to mammals including humans wherein the 6-deoxyacyclovir is acted upon by xanthine oxidase/dehydrogenase or aldehyde oxidase in the body and is thereby converted into acyclovir. […] Oxygen or other appropriate electron acceptors such as ferricyanide ion or methylene blue may serve as the oxidizing agent. Microorganisms which contain or produce xanthine oxidase/dehydrogenase may be used to effect the conversion of 6-deoxyacyclovir to acyclovir.

[2] = test system: xanthine oxidase from bovine milk; assay: Enzyme studies: rate of oxidation by xanthine oxidase from bovine milk; format: biochemical
Text: The discovery that the 6-hydrogen purine of formula (I) above can be readily converted into its corresponding 6-hydroxy analogue is surprising since in previous studies with xanthine oxidase from bovine milk (H. Lettre et al. (1967) Biochem. Pharmacol., 16, 1747-1755; T. A. Krenitsky et al. (1972) Arch. Biophys., 150, 585-599) it was shown that 9-substitution obliterates or greatly diminishes the rate at which a variety of purines are oxidized.

Beagle dogs = assay: Toxicity study in Beagle dogs, per os; format: in vivo; details: 40 mg/kg/day, once daily 5 days
Method: Two male and 2 female Beagle dogs were given 6-deoxyacyclovir per os (once daily for 5 consecutive days) at a dose level of 40 mg/kg/day. There were no effects in 1 male and 1 female sacrificed at the end of the treatment period or in 1 male and 1 female sacrificed after a 2 week post-dose period.

[3] = Oral absorption and acyclovir blood/plasma levels in rats; format: in vivo
Method: The following experiments were carried out to determine the urinary excretion and plasma levels of acyclovir after oral dosing of rats with acyclovir, 6-deoxyacyclovir and the 6-amino analogue thereof i.e. 2,6-diamino-9-(2-hydroxyethoxymethyl)purine, hereinafter referred to as aminoacyclovir.
Long Evans male rats were dosed by intragastric needle with the drug and placed in metabolic cages which separated urine from feces. The collected urine and plasma samples were analyzed for acyclovir content by a radioimmunoassay (Quinn, R. P., et al., Anal. Biochem., 98, 319 (1979)).

[4] = test system: xanthine oxidase/dehydrogenase or aldehyde oxidase
Text: as §1

[5] = test system: bovine milk xanthine oxidase; assay: Enzymatic conversion of 6-deoxyacyclovir to acyclovir by bovine milk xanthine oxidase (Example 2); format: biochemical; details: 24 hours, 43.6 μM substrate, pH 6.8, 25° C, atmospheric oxygen; UV monitoring
Method: A solution (20 μL) of a purified bovine milk xanthine oxidase containing 1.06 units (nmoles of xanthine oxidized per minute) of activity was added to 500 μL of a solution 43.6 μM with respect to 6-deoxyacyclovir, 0.05M with respect to potassium phosphate and 0.13 mM with respect to ethylenediaminetetraacetic acid at pH 6.8 and 25° C. The reaction mixture was equilibrated with atmospheric oxygen, and the oxygen served as the electron acceptor. […] The indentity of acyclovir as the product of the reaction was confirmed by its NMR spectrum.

[6] = cited from earlier work
[7] = test system: herpes viruses such as herpes simplex; details: cited from earlier work
[8] = Water solubility at 25° C; format: physicochemical
adenosine deaminase = details: depends on adenosine deaminase; Good and de Miranda 1982; cited from earlier work

## Nc1ncc2ncn(COCCO)c2n1 [6-deoxyacyclovir, 2-Amino-9-(2-hydroxyethoxymethyl)purine]
[1]
  ex vivo (in vitro) enzymatic oxidation to acyclovir: demonstrated that acyclovir may be synthesized
[2]
  rate of oxidation relative to the 9-unsubstituted purine: at a faster rate than the 9-unsubstituted purine
Beagle dogs; after 2 week post-dose period
  effects in toxicity study: no effects
Beagle dogs; end of treatment
  effects in toxicity study: no effects
[3]
  blood levels of acyclovir compared with oral acyclovir itself: higher blood levels of acyclovir are obtainable with 6-deoxyacyclovir than with acyclovir itself
[3]; rats
  absorption from the gastro-intestinal tract and plasma levels of acyclovir: efficient absorption from the gastro-intestinal tract and high plasma levels of the corresponding acyclovir
[4]
  conversion in vivo into acyclovir: readily converted in vivo
[5]
  conversion to acyclovir: nearly complete conversion to acyclovir

## Nc1nc2c(ncn2COCCO)c(=O)[nH]1 [acyclovir, 9-(2-hydroxyethoxymethyl)guanine]
[6]
  absorption upon oral administration: only moderately well absorbed upon oral administration
[7]; herpes viruses such as herpes simplex
  activity against herpes viruses: particularly good activity against herpes viruses
[7]; topical or parenteral
  effectiveness upon topical or parenteral administration: especially effective upon topical or parenteral administration
[8]
  solubility in water: 1250 µg/mL (≈ 5.55 mM)

## Nc1nc(N)c2ncn(COCCO)c2n1 [aminoacyclovir, 2,6-diamino-9-(2-hydroxyethoxymethyl)purine]
Adenosine deaminase
  conversion to acyclovir in vivo: depends on adenosine deaminase for conversion to acyclovir in vivo
